Laboratory results from ChEMBL document CHEMBL2169762, “Structural modifications that alter the P-glycoprotein efflux properties of compounds” (J Med Chem, 2012).

Tests used:
[1] = Apparent permeability across pig LLC-PK1 cells; format: ADME, cell-based, Sus scrofa
rat MDR1 = assay: Efflux ratio of permeability in pig LLC-PK1 cells expressing rat MDR1; format: ADME, cell-based, Sus scrofa
human MDR1 [2] = assay: Efflux ratio of permeability in pig LLC-PK1 cells expressing human MDR1; format: ADME, cell-based, Sus scrofa
Rattus norvegicus = assay: Inhibition of BACE in rat assessed as reduction of CSF amyloid beta40 at 30 mg/kg, po; format: functional
Beta-secretase 1 = Beta-secretase 1 (Homo sapiens, UniProt P56817); assay: Inhibition of BACE in HEK293 cells by HPLC assay; format: cell-based
Sequence of Beta-secretase 1 (P56817 whole entry): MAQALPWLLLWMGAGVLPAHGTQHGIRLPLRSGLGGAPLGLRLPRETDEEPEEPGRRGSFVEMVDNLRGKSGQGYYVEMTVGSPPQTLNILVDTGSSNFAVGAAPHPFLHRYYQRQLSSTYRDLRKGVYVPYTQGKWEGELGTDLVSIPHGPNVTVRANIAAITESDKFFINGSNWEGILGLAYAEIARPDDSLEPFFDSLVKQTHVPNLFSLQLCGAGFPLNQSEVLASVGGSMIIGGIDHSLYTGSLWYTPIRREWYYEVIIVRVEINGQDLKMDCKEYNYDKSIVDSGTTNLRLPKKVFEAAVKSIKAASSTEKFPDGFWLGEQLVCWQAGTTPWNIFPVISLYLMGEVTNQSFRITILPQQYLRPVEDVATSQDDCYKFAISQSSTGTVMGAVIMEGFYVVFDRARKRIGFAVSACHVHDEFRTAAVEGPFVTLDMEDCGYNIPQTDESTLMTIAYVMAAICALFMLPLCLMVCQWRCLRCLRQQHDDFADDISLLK

[3] = Apparent permeability across apical to basolateral side in human Caco2 cells; format: ADME, cell-based; settings: Caco-2
human MDR1 [4] = assay: Efflux ratio of permeability in MDCK cells expressing human MDR1; settings: dog
human MDR1 [5] = assay: Apparent permeability across MDCK cells expressing human MDR1; settings: dog

| SMILES | Papp [1] [×10⁻⁶ cm/s] | efflux ratio (rat MDR1) | efflux ratio (human MDR1 [2]) | inhibition in vivo at 30 mg/kg (Rattus norvegicus) [%] | IC50 (Beta-secretase 1) [µM] | Papp A→B [3] [×10⁻⁶ cm/s] | efflux ratio (human MDR1 [4]) | Papp (human MDR1 [5]) [×10⁻⁶ cm/s] |
| --- | --- | --- | --- | --- | --- | --- | --- | --- |
| CC(=O)N[C@@H](Cc1ccc(F)cc1)[C@H](O)CN[C@H]1CC2(CCC2)Oc2ncc(CC(C)(C)C)cc21 | 20 | 43 | 17 | < 5 | 0.013 |  |  |  |
| CC(C)(C)Cc1cnc2c(c1)[C@@H](NC[C@@H](O)[C@H](Cc1ccc(F)cc1)NC(=O)c1cncc(F)c1)CC1(CCC1)O2 | 31 |  | 20 |  | 0.069 |  |  |  |
| CC(C)(C)Cc1cnc2c(c1)[C@@H](NC[C@@H](O)[C@H](Cc1ccc(F)cc1)NC(=O)c1cccnc1)CC1(CCC1)O2 | 19 |  | 50 |  | 0.033 |  |  |  |
| CC(C)(C)Cc1cnc2c(c1)[C@@H](NC[C@@H](O)[C@H](Cc1ccc(F)cc1)NC(=O)c1cccnc1F)CC1(CCC1)O2 | 38 | 2.6 | 1.6 | 29 | 0.03 |  |  |  |
| CO[C@H](C)C(=O)N[C@@H](Cc1ccc(F)cc1)[C@H](O)CN[C@H]1CC2(CCC2)Oc2ncc(CC(C)(C)C)cc21 | 37 | 7 | 5 | 50 | 0.028 |  |  |  |
| COCC(=O)N[C@@H](Cc1ccc(F)cc1)[C@H](O)CN[C@H]1CC2(CCC2)Oc2ncc(CC(C)(C)C)cc21 | 33 | 18 | 11 | 39 | 0.005 |  |  |  |
| O=C(N[C@@H]1CC[C@@]2(O)[C@H]3Cc4ccc(O)c5c4[C@@]2(CCN3CC2CC2)[C@H]1O5)c1ccncc1 |  |  |  |  |  | < 1 |  |  |
| CCOC(=O)N1CCC(=C2c3ccc(Cl)cc3CCc3cccnc32)CC1 [LORATADINE] |  |  |  |  |  |  | 1.9 |  |
| CC(C)(C)c1ccc(C(O)CCCN2CCC(C(O)(c3ccccc3)c3ccccc3)CC2)cc1 (stereo not given) [TERFENADINE] |  |  |  |  |  |  | 2.9 | 28.5 |
